Target: T1, rat metabotropic glutamate receptor 5 (rmGluR5) (Rattus norvegicus, UniProt P31424)
T1 construct: expressed in transfected cells
Experiment: Calcium mobilization (FLIPR) assay for negative allosteric modulation, EC80 glutamate, rmGluR5 in HEK 293
Type: cell-based
Conditions: HEK293; rmGluR5, inhibition of EC80 glutamate response; read-out: FLIPR maximum inhibition
Method: The cDNA for rat metabotropic glutamate receptor 5 (rmGluR5) and the cDNA for human metabotropic glutamate receptor 5 (hmGluR5) were generous gifts from S. Nakanishi (Kyoto University, Kyoto, Japan). The rmGluR5 or hmGluR5 was stably expressed in a HEK 293 cell line and grown in Dulbecco's Modified Eagle Medium (DMEM) (Invitrogen, Carlsbad, Calif.) with supplements (10% bovine calf serum, 4 mM glutamine, 100 units/mL penicillin, 100 μg/mL streptomycin and 0.75 mM G1418) at 37° C., 5% CO2. Twenty-four hours prior to assay, cells were seeded into 384-well black wall microtiter plates coated with poly-D-lysine. Just prior to assay, media was aspirated and cells dye-loaded (25 μL/well) with 3 μM Fluo-4/0.01% pluronic acid in assay buffer (Hank's Balanced Saline Solution (HBSS)): 150 mM NaCl, 5 mM KCl, 1 mM CaCl2, 1 mM MgCl2, plus 20 mM N-2-Hydroxyethylpiperazine-N′-2-ethanesulfonic acid (HEPES), pH 7.4, 0.1% bovine serum albumin (BSA) and 2.5 mM probenicid) for 1 hour in 5% CO2 at 37° C. After excess dye was discarded, cells were washed in assay buffer and layered with a final volume equal to 30 μL/well. Basal fluorescence is monitored in a fluorometric imaging plate reader (FLIPR) (Molecular Devices, Sunnyvale, Calif.) with an excitation wavelength of 488 nm and an emission range of 500 to 560 nm. Laser excitation energy was adjusted so that basal fluorescence readings were approximately 10,000 relative fluorescent units. Cells were stimulated with an EC20 or an EC80 concentration of glutamate in the presence of a compound to be tested, both diluted in assay buffer, and relative fluorescent units were measured at defined intervals (exposure=0.6 sec) over a 3 min period at room temperature. Basal readings derived from negative controls were subtracted from all samples. Maximum change in fluorescence was calculated for each well. Concentration-response curves derived from the maximum change in fluorescence were analyzed by nonlinear regression (Hill equation). A negative modulator can be identified from these concentration-response curves if a compound produces a concentration dependent inhibition of the EC80 glutamate response.

T1 sequence (P31424 21-1203): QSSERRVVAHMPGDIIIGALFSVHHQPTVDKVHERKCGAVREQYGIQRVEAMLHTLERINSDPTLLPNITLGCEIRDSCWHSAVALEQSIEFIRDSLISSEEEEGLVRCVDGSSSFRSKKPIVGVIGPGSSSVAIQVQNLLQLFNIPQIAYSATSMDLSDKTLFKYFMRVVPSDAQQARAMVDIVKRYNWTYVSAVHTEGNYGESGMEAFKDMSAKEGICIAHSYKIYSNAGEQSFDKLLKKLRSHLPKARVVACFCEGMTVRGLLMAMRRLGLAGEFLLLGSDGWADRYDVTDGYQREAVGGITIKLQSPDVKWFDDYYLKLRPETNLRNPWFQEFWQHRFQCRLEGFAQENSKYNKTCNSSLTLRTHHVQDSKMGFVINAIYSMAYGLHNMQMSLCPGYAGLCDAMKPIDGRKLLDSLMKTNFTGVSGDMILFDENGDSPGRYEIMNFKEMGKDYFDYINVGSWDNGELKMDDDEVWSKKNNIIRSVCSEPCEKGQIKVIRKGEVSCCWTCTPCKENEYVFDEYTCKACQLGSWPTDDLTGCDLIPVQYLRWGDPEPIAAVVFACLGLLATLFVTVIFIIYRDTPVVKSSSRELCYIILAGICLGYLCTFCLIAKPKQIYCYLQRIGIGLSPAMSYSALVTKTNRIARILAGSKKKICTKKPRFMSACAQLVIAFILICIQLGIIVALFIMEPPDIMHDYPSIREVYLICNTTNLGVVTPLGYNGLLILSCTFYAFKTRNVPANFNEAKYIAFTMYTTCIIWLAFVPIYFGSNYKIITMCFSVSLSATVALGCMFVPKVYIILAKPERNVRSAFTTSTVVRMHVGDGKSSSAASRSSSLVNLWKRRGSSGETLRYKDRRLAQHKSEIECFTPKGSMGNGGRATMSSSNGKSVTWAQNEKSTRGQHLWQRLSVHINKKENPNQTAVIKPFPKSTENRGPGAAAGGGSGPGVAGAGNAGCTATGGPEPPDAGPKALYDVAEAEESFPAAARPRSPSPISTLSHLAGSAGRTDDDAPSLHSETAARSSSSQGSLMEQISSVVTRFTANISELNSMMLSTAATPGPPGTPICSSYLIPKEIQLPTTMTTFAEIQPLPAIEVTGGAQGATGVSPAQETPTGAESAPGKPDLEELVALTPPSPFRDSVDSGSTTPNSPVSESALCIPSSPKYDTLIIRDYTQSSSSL

Row | Emax [%] | Structure (SMILES)
1 | 81 to 99 | O=C(N[C@H]1CCC[C@]2(CCN(c3cccc(F)c3)C2=O)C1)c1ccccn1 (racemic) [Example 19, cis-Pyridine-2-carboxylic acid [2-(3-fluoro-phenyl)-1-oxo-2-aza-spiro[4.5]dec-7-yl]-amide]
2 | 81 to 99 | Cc1cccc(N2CC[C@]3(CCC[C@H](NC(=O)c4cccc(F)c4)C3)C2=O)n1 (racemic) [Example 27, cis-3-Fluoro-N-[2-(6-methyl-pyridin-2-yl)-1-oxo-2-aza-spiro[4.5]dec-7-yl]-benzamide]
3 | 81 to 99 | Cc1cccc(C(=O)N[C@H]2CCC[C@]3(CCN(c4cccc(C(F)(F)F)n4)C3=O)C2)n1 (racemic) [Example 41, cis-6-Methyl-pyridine-2-carboxylic acid [1-oxo-2-(6-trifluoromethyl-pyridin-2-yl)-2-aza-spiro[4.5]dec-7-yl]-amide]
4 | 81 to 99 | Cc1cccc(C(=O)N[C@H]2CCC[C@]3(CCN(c4cc(F)cc(F)c4)C3=O)C2)n1 (racemic) [Example 42, cis-6-Methyl-pyridine-2-carboxylic acid [2-(3,5-difluoro-phenyl)-1-oxo-2-aza-spiro[4.5]dec-7-yl]-amide]
5 | 81 to 99 | Cc1cccc(C(=O)N[C@H]2CCC[C@]3(CCN(c4ccc(F)cc4)C3=O)C2)n1 (racemic) [Example 44, cis-6-Methyl-pyridine-2-carboxylic acid [2-(4-fluoro-phenyl)-1-oxo-2-aza-spiro[4.5]dec-7-yl]-amide]
6 | 81 to 99 | Cc1cccc(C(=O)N[C@H]2CCC[C@@]3(CCN(c4cccc(Cl)c4)C3=O)C2)n1 (relative stereo) [Example 3, trans-6-Methyl-pyridine-2-carboxylic acid [2-(3-chloro-phenyl)-1-oxo-2-aza-spiro [4.5]dec-7-yl]-amide]
7 | 81 to 99 | Cc1cccc(N2CC[C@]3(CCC[C@H](NC(=O)c4ccccn4)C3)C2=O)n1 (relative stereo) [Example 7, cis-Pyridine-2-carboxylic acid [2-(6-methyl-pyridin-2-yl)-1-oxo-2-aza-spiro [4.5]dec-7-yl]-amide]
8 | 81 to 99 | N#Cc1cccc(N2CC[C@]3(CCC[C@H](NC(=O)c4ccccn4)C3)C2=O)c1 (relative stereo) [Example 9, cis-Pyridine-2-carboxylic acid [2-(3-cyano-phenyl)-1-oxo-2-aza-spiro[4.5]dec-7-yl]-amide]
9 | 81 to 99 | Cc1cccc(C(=O)N[C@H]2CCC[C@]3(CCN(c4cccc(C#N)c4)C3=O)C2)n1 (relative stereo) [Example 10, cis-6-Methyl-pyridine-2-carboxylic acid [2-(3-cyano-phenyl)-1-oxo-2-aza-spiro [4.5]dec-7-yl]-amide]
10 | 81 to 99 | Cc1cncc(C(=O)N[C@H]2CCC[C@]3(CCN(c4cccc(C#N)c4)C3=O)C2)n1 (relative stereo) [Example 11, cis-6-Methyl-pyrazine-2-carboxylic acid [2-(3-cyano-phenyl)-1-oxo-2-aza-spiro [4.5]dec-7-yl]-amide]
11 | 81 to 99 | Cc1cncc(C(=O)N[C@H]2CCC[C@]3(CCN(c4cccc(Cl)c4)C3=O)C2)n1 (relative stereo) [Example 12, cis-6-Methyl-pyrazine-2-carboxylic acid [2-(3-chloro-phenyl)-1-oxo-2-aza-spiro [4.5]dec-7-yl]-amide]
12 | 81 to 99 | O=C(N[C@H]1CCC[C@]2(CCN(c3cccc(Cl)c3)C2=O)C1)c1cnccn1 (relative stereo) [Example 13, cis-Pyrazine-2-carboxylic acid [2-(3-chloro-phenyl)-1-oxo-2-aza-spiro[4.5]dec-7-yl]-amide]
13 | 81 to 99 | Cn1ccc(C(=O)N[C@H]2CCC[C@]3(CCN(c4cccc(Cl)c4)C3=O)C2)n1 (relative stereo) [Example 14, cis-1-Methyl-1H-pyrazole-3-carboxylic acid [2-(3-chloro-phenyl)-1-oxo-2-aza-spiro[4.5]dec-7-yl]-amide]
14 | 81 to 99 | N#Cc1cccc(N2CC[C@]3(CCC[C@H](NC(=O)c4cccc(F)c4)C3)C2=O)c1 (relative stereo) [Example 15, cis-N-[2-(3-Cyano-phenyl)-1-oxo-2-aza-spiro[4.5]dec-7-yl]-3-fluoro-benzamide]
15 | 81 to 99 | N#Cc1cccc(N2CC[C@]3(CCC[C@H](NC(=O)c4cccc(Cl)c4)C3)C2=O)c1 (relative stereo) [Example 16, cis-N-[2-(3-Cyano-phenyl)-1-oxo-2-aza-spiro[4.5]dec-7-yl]-3-chloro-benzamide]
16 | 81 to 99 | Cc1cccc(C(=O)N[C@H]2CCC[C@]3(CCN(c4cccc(F)c4)C3=O)C2)n1 (relative stereo) [Example 17, cis-6-Methyl-pyridine-2-carboxylic acid [2-(3-fluoro-phenyl)-1-oxo-2-aza-spiro[4.5]dec-7-yl]-amide]
17 | 81 to 99 | Cc1cccc(C(=O)N[C@H]2CCC[C@@]3(CCN(c4cccc(F)c4)C3=O)C2)n1 (relative stereo) [Example 18, trans-6-Methyl-pyridine-2-carboxylic acid [2-(3-fluoro-phenyl)-1-oxo-2-aza-spiro [4.5]dec-7-yl]-amide]
18 | 81 to 99 | O=C(N[C@H]1CCC[C@@]2(CCN(c3cccc(F)c3)C2=O)C1)c1ccccn1 (relative stereo) [Example 20, trans-Pyridine-2-carboxylic acid [2-(3-fluoro-phenyl)-1-oxo-2-aza-spiro [4.5]dec-7-yl]-amide]
19 | 81 to 99 | Cc1cncc(C(=O)N[C@H]2CCC[C@]3(CCN(c4cccc(F)c4)C3=O)C2)n1 (relative stereo) [Example 21, cis-6-Methyl-pyrazine-2-carboxylic acid [2-(3-fluoro-phenyl)-1-oxo-2-aza-spiro [4.5]dec-7-yl]-amide]
20 | 81 to 99 | Cc1cncc(C(=O)N[C@H]2CCC[C@@]3(CCN(c4cccc(F)c4)C3=O)C2)n1 (relative stereo) [Example 22, trans-6-Methyl-pyrazine-2-carboxylic acid[2-(3-fluoro-phenyl)-1-oxo-2-aza-spiro [4.5]dec-7-yl]-amide]
21 | 81 to 99 | Cc1cccc(N2CC[C@@]3(CCC[C@H](NC(=O)c4cccc(F)c4)C3)C2=O)n1 (relative stereo) [Example 24, trans-3-Fluoro-N-[2-(6-methyl-pyridin-2-yl)-1-oxo-2-aza-spiro[4.5]dec-7-yl]-benzamide]
22 | 81 to 99 | O=C(N[C@H]1CCC[C@]2(CCN(c3ccccn3)C2=O)C1)c1cccc(F)c1 (relative stereo) [Example 26, 3-Fluoro-N-(1-oxo-2-pyridin-2-yl-2-aza-spiro[4.5]dec-7-yl)-benzamide]
23 | 81 to 99 | Cc1ccnc(N2CC[C@]3(CCC[C@H](NC(=O)c4ccccn4)C3)C2=O)n1 (relative stereo) [Example 29, cis-Pyridine-2-carboxylic acid [2-(4-methyl-pyrimidin-2-yl)-1-oxo-2-aza-spiro [4.5]dec-7-yl]-amide]
24 | 81 to 99 | O=C(N[C@H]1CCC[C@]2(CCN(c3cc(F)ccn3)C2=O)C1)c1ccccn1 (relative stereo) [Example 30, cis-Pyridine-2-carboxylic acid [2-(4-fluoro-pyridin-2-yl)-1-oxo-2-aza-spiro[4.5]dec-7-yl]-amide]
25 | 81 to 99 | Cc1cccc(C(=O)N[C@H]2CCC[C@]3(CCN(c4ccc(F)cn4)C3=O)C2)n1 (relative stereo) [Example 31, cis-6-Methyl-pyridine-2-carboxylic acid [2-(5-fluoro-pyridin-2-yl)-1-oxo-2-aza-spiro[4.5]dec-7-yl]-amide]
26 | 81 to 99 | Cc1cccc(C(=O)N[C@H]2CCC[C@]3(CCN(c4cc(F)ccn4)C3=O)C2)n1 (relative stereo) [Example 32, cis-6-Methyl-pyridine-2-carboxylic acid [2-(4-fluoro-pyridin-2-yl)-1-oxo-2-aza-spiro[4.5]dec-7-yl]-amide]
27 | 81 to 99 | O=C(N[C@H]1CCC[C@]2(CCN(c3ccc(F)cn3)C2=O)C1)c1ccccn1 (relative stereo) [Example 33, cis-Pyridine-2-carboxylic acid [2-(5-fluoro-pyridin-2-yl)-1-oxo-2-aza-spiro [4.5]dec-7-yl]-amide]
28 | 81 to 99 | Cc1cccc(C(=O)N[C@H]2CCC[C@]3(CCN(c4nccc(C)n4)C3=O)C2)n1 (relative stereo) [Example 34, cis-6-Methyl-pyridine-2-carboxylic acid [2-(4-methyl-pyrimidin-2-yl)-1-oxo-2-aza-spiro[4.5]dec-7-yl]-amide]
29 | 81 to 99 | O=C(N[C@H]1CCC[C@]2(CCN(c3ccc(F)cn3)C2=O)C1)c1cccc(F)c1 (relative stereo) [Example 35, cis-3-Fluoro-N-[2-(5-fluoro-pyridin-2-yl)-1-oxo-2-aza-spiro[4.5]dec-7-yl]-benzamide]

Reference: US9359297B2, “Spirolactam derivatives and uses of same” (H. Lundbeck A/S, priority 2009, dated 2016)
